Source: ChEMBL document CHEMBL3217688, “Structure-based design, synthesis, and profiling of potent and selective neuronal nitric oxide synthase (nNOS) inhibitors with an amidinothiophene hydroxypiperidine scaffold” (Medchemcomm, 2011)

Legend:
Nitric oxide synthase 1 = Nitric oxide synthase 1 (Rattus norvegicus, UniProt P29476); assay: Inhibition of recombinant rat nNOS assessed as conversion of L-arginine to citrulline after 30 mins
Nitric oxide synthase 3 = Nitric oxide synthase 3 (Homo sapiens, UniProt P29474); assay: Inhibition of eNOS (unknown origin)
Chain of Nitric oxide synthase 3 (P29474 whole entry, looked up): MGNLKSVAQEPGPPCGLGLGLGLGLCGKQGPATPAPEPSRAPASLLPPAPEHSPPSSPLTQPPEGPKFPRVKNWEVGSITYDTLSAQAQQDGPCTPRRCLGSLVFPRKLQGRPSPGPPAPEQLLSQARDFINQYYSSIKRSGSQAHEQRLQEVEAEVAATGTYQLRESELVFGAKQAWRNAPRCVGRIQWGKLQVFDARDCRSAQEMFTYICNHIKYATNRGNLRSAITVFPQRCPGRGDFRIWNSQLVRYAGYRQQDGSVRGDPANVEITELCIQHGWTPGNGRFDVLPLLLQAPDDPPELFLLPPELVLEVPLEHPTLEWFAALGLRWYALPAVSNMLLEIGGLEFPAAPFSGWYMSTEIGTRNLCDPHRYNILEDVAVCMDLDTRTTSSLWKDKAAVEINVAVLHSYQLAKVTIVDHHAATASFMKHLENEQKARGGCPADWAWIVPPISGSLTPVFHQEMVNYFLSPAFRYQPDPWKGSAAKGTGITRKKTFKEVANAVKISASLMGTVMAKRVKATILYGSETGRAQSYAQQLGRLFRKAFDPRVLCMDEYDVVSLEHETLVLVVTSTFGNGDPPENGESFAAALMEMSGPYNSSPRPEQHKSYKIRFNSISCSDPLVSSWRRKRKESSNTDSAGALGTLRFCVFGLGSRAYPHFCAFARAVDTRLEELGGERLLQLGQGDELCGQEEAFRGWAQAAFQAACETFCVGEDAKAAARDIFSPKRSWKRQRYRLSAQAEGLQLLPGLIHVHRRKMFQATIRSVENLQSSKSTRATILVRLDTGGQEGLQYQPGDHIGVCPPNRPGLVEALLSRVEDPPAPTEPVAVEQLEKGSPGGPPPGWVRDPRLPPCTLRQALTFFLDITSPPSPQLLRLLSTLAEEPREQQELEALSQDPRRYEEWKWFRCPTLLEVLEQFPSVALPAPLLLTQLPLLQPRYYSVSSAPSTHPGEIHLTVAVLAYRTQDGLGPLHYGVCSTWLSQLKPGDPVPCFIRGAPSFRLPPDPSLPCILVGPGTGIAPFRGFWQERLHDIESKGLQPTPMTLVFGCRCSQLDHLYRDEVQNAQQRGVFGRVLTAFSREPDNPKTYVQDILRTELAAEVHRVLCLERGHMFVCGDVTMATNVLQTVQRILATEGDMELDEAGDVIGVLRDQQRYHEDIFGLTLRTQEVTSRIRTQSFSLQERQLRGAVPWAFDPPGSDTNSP

[1] = Selectivity ratio of IC50 for eNOS (unknown origin) to IC50 for recombinant rat nNOS
[2] = Drug metabolism in human liver microsomes after 20 mins; assay type: ADME; details: read-out: Drug metabolism

Chain of Nitric oxide synthase 1 (P29476 whole entry): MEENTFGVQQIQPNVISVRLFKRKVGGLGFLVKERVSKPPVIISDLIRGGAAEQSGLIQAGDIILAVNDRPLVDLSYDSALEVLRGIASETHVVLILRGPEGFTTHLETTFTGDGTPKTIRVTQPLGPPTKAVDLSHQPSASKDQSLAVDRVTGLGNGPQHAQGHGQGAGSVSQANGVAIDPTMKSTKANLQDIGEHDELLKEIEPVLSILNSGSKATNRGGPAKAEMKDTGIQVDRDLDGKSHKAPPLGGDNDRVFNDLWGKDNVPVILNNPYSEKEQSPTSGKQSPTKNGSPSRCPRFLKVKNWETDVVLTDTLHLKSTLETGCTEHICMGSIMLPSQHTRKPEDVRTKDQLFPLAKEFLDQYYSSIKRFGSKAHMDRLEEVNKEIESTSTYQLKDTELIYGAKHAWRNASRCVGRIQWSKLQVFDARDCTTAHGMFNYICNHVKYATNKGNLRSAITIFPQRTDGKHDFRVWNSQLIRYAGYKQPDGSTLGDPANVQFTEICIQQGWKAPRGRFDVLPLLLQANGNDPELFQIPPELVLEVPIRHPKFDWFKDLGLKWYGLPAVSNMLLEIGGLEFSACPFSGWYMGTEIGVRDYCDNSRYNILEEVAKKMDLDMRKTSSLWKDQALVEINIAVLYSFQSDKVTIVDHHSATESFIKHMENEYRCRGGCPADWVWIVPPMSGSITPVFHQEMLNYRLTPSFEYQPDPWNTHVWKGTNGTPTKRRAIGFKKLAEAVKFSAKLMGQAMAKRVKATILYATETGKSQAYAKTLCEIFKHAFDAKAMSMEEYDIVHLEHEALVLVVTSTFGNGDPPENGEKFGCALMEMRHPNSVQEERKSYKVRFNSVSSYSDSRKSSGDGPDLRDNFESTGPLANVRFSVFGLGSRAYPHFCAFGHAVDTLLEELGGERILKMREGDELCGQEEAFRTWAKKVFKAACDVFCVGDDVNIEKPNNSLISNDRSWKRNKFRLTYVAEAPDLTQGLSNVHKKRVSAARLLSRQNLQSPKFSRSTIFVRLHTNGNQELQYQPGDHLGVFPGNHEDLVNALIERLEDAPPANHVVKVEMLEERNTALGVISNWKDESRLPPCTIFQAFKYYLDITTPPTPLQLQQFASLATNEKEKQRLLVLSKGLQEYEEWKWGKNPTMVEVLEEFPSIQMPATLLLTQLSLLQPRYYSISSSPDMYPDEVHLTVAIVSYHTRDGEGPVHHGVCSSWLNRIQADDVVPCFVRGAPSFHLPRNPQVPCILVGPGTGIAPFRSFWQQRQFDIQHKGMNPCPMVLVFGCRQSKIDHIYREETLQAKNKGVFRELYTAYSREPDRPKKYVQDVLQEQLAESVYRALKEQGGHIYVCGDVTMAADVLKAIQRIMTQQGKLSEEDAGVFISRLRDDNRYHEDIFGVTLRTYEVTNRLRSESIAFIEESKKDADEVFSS

Row | SMILES | IC50 (Nitric oxide synthase 1) [µM] | IC50 (Nitric oxide synthase 3) [µM] | Ratio IC50 [1] | metabolised at 20 min [2] [%]
1 | N=C(Nc1cccc(C2(O)CCN(CCc3ccc(Cl)c(Cl)c3)CC2)c1)c1cccs1 | 0.017 | 28.3 | 1660 | 32
2 | N=C(Nc1cccc(C2(O)CCN(CCc3cccc(Cl)c3Cl)CC2)c1)c1cccs1 | 0.129 | 100 | 775 | 23
3 | N=C(Nc1cccc(C2(O)CCN(CCc3cccc(Cl)c3)CC2)c1)c1cccs1 | 0.131 | 57.5 | 438 | 39

The remaining lines, values ahead:

Row | IC50 (Nitric oxide synthase 1) [µM] | IC50 (Nitric oxide synthase 3) [µM] | Ratio IC50 [1] | metabolised at 20 min [2] [%] | SMILES
4 | 0.551 | 23 | 42 | 16 | CC(C)S(=O)(=O)N1CCC(O)(c2cccc(NC(=N)c3cccs3)c2)CC1
5 | 0.706 | 18.2 | 26 | 25 | CCCS(=O)(=O)N1CCC(O)(c2cccc(NC(=N)c3cccs3)c2)CC1
6 | 0.694 | 10 | 14 | 54 | CCCCNC(=O)N1CCC(O)(c2cccc(NC(=N)c3cccs3)c2)CC1
7 | 0.376 | 60.1 | 159 | 77 | N=C(Nc1cccc(C2(O)CCN(C(=O)OCc3ccccc3)CC2)c1)c1cccs1
